Reference: patent publication US20030055405A1, “Iontophoretic Drug Delivery Device and Reservoir and Method of Making Same” (Vyteris, Inc., priority 1993, published 2003)

Assay: Shelf stability of the loaded reservoir electrode assembly in storage
Format: physicochemical
Details: incorporated into the reservoir
From the text: In the present example, an aqueous loading solution of 30% lidocaine HCI, 3% epinephrine, 30% glycerin, 0.05% sodium metabisulfite, 0.03% ethylene diamine tetraacetic acid, and 0.06% citric acid are used for the loading solution. The medicaments for delivery are lidocaine HCI and epinephrine, the glycerin serves as a humectant, the other minor components serve to enhance drug stability by chelating metal ions and serving as antioxidants. In order to load this solution onto the reservoir with electrode 112, laminate release liner 132 is removed from side 118 of reservoir 114 and a three-hundred microliter aliquot of this loading solution is applied to exposed surface 118, which is then covered with a final cover that remains in place until the reservoir is applied to a patient to protect the reservoir.

## CNC[C@H](O)c1ccc(O)c(O)c1 [epinephrine, Epinephrine Bitartrate]
  shelf stability of labile medicament: satisfactory shelf stability
